We go through 9 compounds from patent US10207984B2, “Cyclopropyl derivatives and methods of use” (Emory University, priority 2011, dated 2019).

Where a name gives a salt, the structure may show the parent alone.

T2 sequence (P31652 whole entry): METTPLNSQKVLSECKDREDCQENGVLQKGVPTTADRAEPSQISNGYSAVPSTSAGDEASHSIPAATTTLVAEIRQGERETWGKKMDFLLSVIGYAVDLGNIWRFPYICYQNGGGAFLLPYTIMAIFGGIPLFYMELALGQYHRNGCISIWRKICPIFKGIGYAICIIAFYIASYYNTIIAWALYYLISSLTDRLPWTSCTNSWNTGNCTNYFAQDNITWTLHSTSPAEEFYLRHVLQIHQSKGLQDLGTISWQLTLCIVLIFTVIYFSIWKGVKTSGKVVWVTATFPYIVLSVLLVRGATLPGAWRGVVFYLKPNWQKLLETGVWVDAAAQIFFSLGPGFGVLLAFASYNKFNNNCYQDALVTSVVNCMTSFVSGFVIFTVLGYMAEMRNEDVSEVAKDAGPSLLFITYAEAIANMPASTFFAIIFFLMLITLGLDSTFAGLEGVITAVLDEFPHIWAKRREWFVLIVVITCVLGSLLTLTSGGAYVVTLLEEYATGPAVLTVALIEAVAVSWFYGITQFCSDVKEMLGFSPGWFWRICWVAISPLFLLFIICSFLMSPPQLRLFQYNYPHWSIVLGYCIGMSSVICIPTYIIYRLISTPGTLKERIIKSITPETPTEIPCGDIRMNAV

In the first series the target is T1, norepinephrine transporters (NET) (Rattus norvegicus, UniProt Q9WTR4).
T1 construct: Whole rat brains (minus cerebellum) are homogenized; from tissue; host or cells: rat whole brain minus cerebellum, membranes
T1 sequence (Q9WTR4 1-597): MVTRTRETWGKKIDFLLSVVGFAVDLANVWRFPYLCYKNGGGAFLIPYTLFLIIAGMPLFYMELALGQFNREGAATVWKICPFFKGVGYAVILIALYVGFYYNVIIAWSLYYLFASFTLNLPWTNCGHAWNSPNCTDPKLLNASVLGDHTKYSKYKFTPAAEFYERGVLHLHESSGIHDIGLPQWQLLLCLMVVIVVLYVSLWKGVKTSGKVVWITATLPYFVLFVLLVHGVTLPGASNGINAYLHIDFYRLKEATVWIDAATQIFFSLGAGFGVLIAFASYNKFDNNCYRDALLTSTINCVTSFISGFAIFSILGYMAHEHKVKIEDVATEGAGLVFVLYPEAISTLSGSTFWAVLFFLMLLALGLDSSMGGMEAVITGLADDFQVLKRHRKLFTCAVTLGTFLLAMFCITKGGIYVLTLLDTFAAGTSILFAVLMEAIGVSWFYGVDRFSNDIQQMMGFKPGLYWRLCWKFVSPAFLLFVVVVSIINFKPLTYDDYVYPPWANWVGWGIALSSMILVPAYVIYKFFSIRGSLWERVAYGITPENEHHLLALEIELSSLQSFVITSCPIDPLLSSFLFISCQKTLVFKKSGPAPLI
Put plainly: NET binding, displacement of [3H]nisoxetine in rat brain membranes. The note with it: [3H]nisoxetine displacement, rat brain membranes; Ki by Cheng-Prusoff; read-out: NET. The protocol:
(§1) Binding of analogs at norepinephrine transporters (NET) was determined by displacement of [^3H]nisoxetine binding. […] The membranes are resuspended in nisoxetine assay buffer (300 mM NaCl, 5 mM KCl, 50 mM Tris-HCl, pH 7.4) and centrifuged again before final resuspension in volumes of buffer. Assay tubes contain 750 μl of brain membranes, [^3H]nisoxetine (0.7 nM) together with unlabeled drugs dissolved in nisoxetine assay buffer to a final volume of 1 ml. Tubes are incubated for 40 min at 25° C., and the reaction is terminated by rapid filtration with 3×4 mL of cold Tris buffer through Whatman GF/B glass fiber filters which have been pre-soaked in Tris buffer containing 0.1% BSA for at least 1 h. Non-specific binding is determined in the presence of 1 μM desipramine. In [^3H]citalopram and [^3H]nisoxetine binding assays, radioactivity is determined by liquid scintillation spectrophotometry (efficiency: 50%) after eluting filters overnight in 5 mL of Ecolite scintillation fluid (ICN). IC50 values are calculated from displacement curves using 7-10 concentrations of unlabeled analogs. […] For [^3H]paroxetine and [^3H]nisoxetine binding assays, Ki values are calculated using the Cheng-Prusoff equation.
On the technique in general: Loss of bound radioactivity is the signal in a displacement assay; it reports binding, not function.
With `CNC[C@@H]1C[C@]1(C(=O)OC)c1ccc(Cl)c(Cl)c1` [HD-327, (1R,2R)-methyl 1-(3,4-dichlorophenyl)-2-((methylamino)methyl)cyclopropanecarboxylate], the Ki came to 0.31 ± 0.01 nM.

Turning to `CNC[C@@H]1C[C@]1(C(=O)OC)c1ccc(-c2ccccc2)cc1` [HD-333, (1R,2R)-methyl 1-([1,1′-biphenyl]-4-yl)-2-((methylamino)methyl)cyclopropanecarboxylate], the Ki amounted to 86.6 ± 19 nM.

Take `CNCC1CC1(C(=O)OC)c1ccc(-c2ccccc2)cc1` (racemic) [HD-286, Methyl 1-([1,1′-biphenyl]-4-yl)-2-((methylamino)methyl)cyclopropanecarboxylate hydrochloride]: the Ki came out at 315 ± 100 nM.

As for `CNCC1CC1(C(=O)OC)c1ccc(Br)cc1` (racemic) [HD-285, Methyl 1-(4-bromophenyl)-2-((methylamino)methyl)cyclopropanecarboxylate], the Ki was 3.7 ± 1.4 nM.

On to `CNC[C@H]1C[C@@]1(C(=O)OC)c1ccc(Br)cc1` [HD-324, (1S,2S)-methyl 1-(4-bromophenyl)-2-((methylamino)methyl)cyclopropanecarboxylate], for which the Ki amounted to 44.9 ± 1 nM.

Turning to `CNC[C@H]1C[C@@]1(C(=O)OC)c1ccc(Br)c(Br)c1` [HD-328, (1S,2S)-methyl 1-(3,4-dibromophenyl)-2-((methylamino)methyl)cyclopropanecarboxylate], the Ki came out at 4.57 ± 0.66 nM.

As for `CNCC1CC1(C(=O)OC)c1ccccc1Cl` (racemic) [HD-290, Methyl 1-(2-chlorophenyl)-2-((methylamino)methyl)cyclopropanecarboxylate], the Ki is 289 ± 24 nM.

Turning to `CNC[C@H]1C[C@@]1(C(=O)OC)c1ccc(-c2ccccc2)cc1` [HD-332, (1S,2S)-methyl 1-([1,1′-biphenyl]-4-yl)-2-((methylamino)methyl)cyclopropanecarboxylate], the Ki was greater than 10000 nM.

Turning to `CNC[C@@H]1C[C@]1(C(=O)OC)c1ccc(Br)c(Br)c1` [HD-329, (1R,2R)-methyl 1-(3,4-dibromophenyl)-2-((methylamino)methyl)cyclopropanecarboxylate], the Ki was 0.62 ± 0.12 nM.

The next series addresses T2, 5-HT transport (SERT) sites (Rattus norvegicus, UniProt P31652).
T2 construct: Tissue is obtained from frozen rat brains as described above; from tissue; host or cells: rat frontal cortex membranes (frozen rat brains)
Nature of the series: SERT binding, displacement of [3H]citalopram in rat frontal cortex membranes. The note with it: [3H]citalopram displacement, rat frontal cortex membranes; Ki by Cheng-Prusoff; read-out: SERT. The protocol: Affinities of analogs at 5-HT transport (SERT) sites are determined by displacement of [^3H] citalopram binding in membranes from rat frontal cortex. […] Assay tubes contain 50 mg (original wet weight) of membranes, 0.4 nM [^3H]citalopram, and various concentrations of unlabeled drugs dissolved in citalopram assay buffer in a final volume of 2 ml. Tubes are incubated for 60 min at 25° C., and the reaction is terminated by rapid filtration with 3×4 mL of cold Tris buffer through Whatman GF/B glass fiber filters pre-soaked in Tris buffer containing 0.1% BSA for at least 1 h. Non-specific binding is determined in the presence of 10 μM fluoxetine.
as §1
Take `CNC[C@@H]1C[C@]1(C(=O)OC)c1ccc(Cl)c(Cl)c1` [HD-327, (1R,2R)-methyl 1-(3,4-dichlorophenyl)-2-((methylamino)methyl)cyclopropanecarboxylate]: the Ki was 2.42 ± 0.31 nM.

Turning to `CNC[C@@H]1C[C@]1(C(=O)OC)c1ccc(-c2ccccc2)cc1` [HD-333, (1R,2R)-methyl 1-([1,1′-biphenyl]-4-yl)-2-((methylamino)methyl)cyclopropanecarboxylate], the Ki was determined as 2.69 ± 0.62 nM.

Regarding `CNCC1CC1(C(=O)OC)c1ccc(-c2ccccc2)cc1` (racemic) [HD-286, Methyl 1-([1,1′-biphenyl]-4-yl)-2-((methylamino)methyl)cyclopropanecarboxylate hydrochloride], the Ki stood at 4.85 ± 1 nM.

Take `CNCC1CC1(C(=O)OC)c1ccc(Br)cc1` (racemic) [HD-285, Methyl 1-(4-bromophenyl)-2-((methylamino)methyl)cyclopropanecarboxylate]: the Ki amounted to 210 ± 10 nM.

For the compound `CNC[C@H]1C[C@@]1(C(=O)OC)c1ccc(Br)cc1` [HD-324, (1S,2S)-methyl 1-(4-bromophenyl)-2-((methylamino)methyl)cyclopropanecarboxylate], the Ki came out at 946 ± 71 nM.

As for `CNC[C@H]1C[C@@]1(C(=O)OC)c1ccc(Br)c(Br)c1` [HD-328, (1S,2S)-methyl 1-(3,4-dibromophenyl)-2-((methylamino)methyl)cyclopropanecarboxylate], the Ki was 18.4 ± 2.5 nM.

Turning to `CNCC1CC1(C(=O)OC)c1ccccc1Cl` (racemic) [HD-290, Methyl 1-(2-chlorophenyl)-2-((methylamino)methyl)cyclopropanecarboxylate], the Ki worked out at 329 ± 54 nM.

Consider `CNC[C@H]1C[C@@]1(C(=O)OC)c1ccc(-c2ccccc2)cc1` [HD-332, (1S,2S)-methyl 1-([1,1′-biphenyl]-4-yl)-2-((methylamino)methyl)cyclopropanecarboxylate], for which the Ki worked out at 79.8 ± 21 nM.

As for `CNC[C@@H]1C[C@]1(C(=O)OC)c1ccc(Br)c(Br)c1` [HD-329, (1R,2R)-methyl 1-(3,4-dibromophenyl)-2-((methylamino)methyl)cyclopropanecarboxylate], the Ki came to 1.71 ± 0.05 nM.

The target in a further series is T3, dopamine transport (DAT) sites (Rattus norvegicus, UniProt P23977).
T3 construct: from tissue; host or cells: Sprague-Dawley rat striatum membranes
T3 sequence (P23977 whole entry): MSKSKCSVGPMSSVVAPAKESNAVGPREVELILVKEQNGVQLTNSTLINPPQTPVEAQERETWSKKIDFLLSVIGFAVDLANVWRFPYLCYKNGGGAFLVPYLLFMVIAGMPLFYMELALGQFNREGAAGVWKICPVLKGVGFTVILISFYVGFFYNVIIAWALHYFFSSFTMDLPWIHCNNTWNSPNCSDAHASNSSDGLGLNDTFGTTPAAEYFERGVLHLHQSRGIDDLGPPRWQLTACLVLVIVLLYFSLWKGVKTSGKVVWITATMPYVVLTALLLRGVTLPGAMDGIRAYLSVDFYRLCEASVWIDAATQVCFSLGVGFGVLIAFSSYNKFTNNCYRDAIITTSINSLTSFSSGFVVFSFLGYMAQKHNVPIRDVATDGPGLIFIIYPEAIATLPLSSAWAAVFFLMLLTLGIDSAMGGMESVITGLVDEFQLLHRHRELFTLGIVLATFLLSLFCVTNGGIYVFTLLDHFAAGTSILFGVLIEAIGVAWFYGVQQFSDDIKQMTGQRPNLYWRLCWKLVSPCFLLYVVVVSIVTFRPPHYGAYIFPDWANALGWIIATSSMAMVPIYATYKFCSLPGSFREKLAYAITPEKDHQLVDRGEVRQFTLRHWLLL
Put plainly: DAT binding, displacement of [125I]RTI-55 in rat striatum membranes. To be noted: [125I]RTI-55 displacement, rat striatum membranes; reported as IC50; read-out: DAT. The protocol:
Frozen brains from Sprague-Dawley rats are obtained commercially and striata are dissected on ice. […] Tubes are incubated for 50 min at 25° C., and the reaction is terminated by rapid filtration with 3-5 ml of cold Tris buffer through Whatman GF/B glass fiber filters pre-soaked in Tris buffer containing 0.1% BSA for at least 1 h. Non-specific binding is determined in the presence of 1 μMWF-23. […]
For `CNCC1CC1(C(=O)OC)c1ccc(Br)cc1` (racemic) [HD-285, Methyl 1-(4-bromophenyl)-2-((methylamino)methyl)cyclopropanecarboxylate], the IC50 turned out to be 1460 ± 470 nM.

For the compound `CNC[C@H]1C[C@@]1(C(=O)OC)c1ccc(Br)cc1` [HD-324, (1S,2S)-methyl 1-(4-bromophenyl)-2-((methylamino)methyl)cyclopropanecarboxylate], the IC50 was greater than 10000 nM.

For `CNC[C@H]1C[C@@]1(C(=O)OC)c1ccc(Br)c(Br)c1` [HD-328, (1S,2S)-methyl 1-(3,4-dibromophenyl)-2-((methylamino)methyl)cyclopropanecarboxylate], the IC50 was 87.9 ± 9.5 nM.

Take `CNCC1CC1(C(=O)OC)c1ccccc1Cl` (racemic) [HD-290, Methyl 1-(2-chlorophenyl)-2-((methylamino)methyl)cyclopropanecarboxylate]: the IC50 was determined as 1840 ± 350 nM.

Turning to `CNC[C@@H]1C[C@]1(C(=O)OC)c1ccc(Br)c(Br)c1` [HD-329, (1R,2R)-methyl 1-(3,4-dibromophenyl)-2-((methylamino)methyl)cyclopropanecarboxylate], the IC50 came out at 35.2 ± 4.6 nM.

System in a further series: not listed separately
Put plainly: Log-P (Table 1). In kind it is physicochemical.
Settings: not given
In turn, `CNC[C@@H]1C[C@]1(C(=O)OC)c1ccc(Cl)c(Cl)c1` [HD-327, (1R,2R)-methyl 1-(3,4-dichlorophenyl)-2-((methylamino)methyl)cyclopropanecarboxylate] had a Log-P of 2.95.

Consider `CNC[C@@H]1C[C@]1(C(=O)OC)c1ccc(-c2ccccc2)cc1` [HD-333, (1R,2R)-methyl 1-([1,1′-biphenyl]-4-yl)-2-((methylamino)methyl)cyclopropanecarboxylate], for which the Log-P is 3.54.

`CNCC1CC1(C(=O)OC)c1ccc(-c2ccccc2)cc1` (racemic) [HD-286, Methyl 1-([1,1′-biphenyl]-4-yl)-2-((methylamino)methyl)cyclopropanecarboxylate hydrochloride] came in with a Log-P of 3.54.

For the compound `CNCC1CC1(C(=O)OC)c1ccc(Br)cc1` (racemic) [HD-285, Methyl 1-(4-bromophenyl)-2-((methylamino)methyl)cyclopropanecarboxylate], the Log-P turned out to be 2.51.

As for `CNC[C@H]1C[C@@]1(C(=O)OC)c1ccc(Br)cc1` [HD-324, (1S,2S)-methyl 1-(4-bromophenyl)-2-((methylamino)methyl)cyclopropanecarboxylate], the Log-P came out at 2.51.

Compound `CNC[C@H]1C[C@@]1(C(=O)OC)c1ccc(Br)c(Br)c1` [HD-328, (1S,2S)-methyl 1-(3,4-dibromophenyl)-2-((methylamino)methyl)cyclopropanecarboxylate] gave a Log-P of 3.17.

`CNCC1CC1(C(=O)OC)c1ccccc1Cl` (racemic) [HD-290, Methyl 1-(2-chlorophenyl)-2-((methylamino)methyl)cyclopropanecarboxylate] showed a Log-P of 2.36.

For the compound `CNC[C@H]1C[C@@]1(C(=O)OC)c1ccc(-c2ccccc2)cc1` [HD-332, (1S,2S)-methyl 1-([1,1′-biphenyl]-4-yl)-2-((methylamino)methyl)cyclopropanecarboxylate], the Log-P stood at 3.54.

As to `CNC[C@@H]1C[C@]1(C(=O)OC)c1ccc(Br)c(Br)c1` [HD-329, (1R,2R)-methyl 1-(3,4-dibromophenyl)-2-((methylamino)methyl)cyclopropanecarboxylate], the Log-P came out at 3.17.

A further series has as its system SNL rats. Nature of the series: Mechanical allodynia (paw withdrawal threshold) in L5/L6 spinal nerve ligation (SNL) model of neuropathic pain. The format is in vivo, rat. To be noted: i.t., clonidine 10 μg, HD-283 30 μg, HD-286 and HD-288 up to 3 μg. The text has this: A 3 cm incision was made in the back using the iliac crests as a midpoint. An incision was then made in the underlying muscle, which was then separated by both sharp and blunt dissection to expose the left transverse process of the fifth lumbar vertebra. The transverse process was removed using bone microrongeurs, and the fifth lumbar nerve was exteriorized from underneath the spinal column using a small metal hook and ligated using 4.0 silk suture with sufficient pressure to cause the nerve to bulge on each side of the ligature. The sixth lumbar nerve was exteriorized from underneath the iliac bone at the sciatic notch and ligated in a similar manner. All muscle layers were sutured using 4.0 chromic gut, the skin was sutured using 4.0 nylon suture.
The animal is placed in a stereotaxic frame to immobilize the head under pentobarbital anesthesia. The animal's body is lifted and supported to render the spinal column straight and level and the animal's head is placed downward such the top of the skull forms a 90° angle with the spinal column. A small incision is placed at the back of the neck and the underlying muscles are blunt dissected to reveal the atlanto-occipital membrane. A small incision is placed in the atlanto-occipital membrane through which a 32 ga polyethylene catheter is inserted that is 8 cm in length. The catheter is anchored to the neck muscles with 4.0 silk suture and the exterior wounds are closed with 4.0 nylon suture.
All compounds were dissolved in 0.9% (wt/vol) saline, pH 7.4 and administered through the intrathecal catheter in a volume of 5 μl, followed by 15 μl of 0.9% saline to flush the catheter.
Paw withdrawal threshold was determined before and at selected time points following intrathecal drug administration using calibrated von Frey filaments. The animals are placed in elevated Plexiglas chambers with wire mesh floors and acclimated for a minimum of 30 minutes. Beginning with a filament calibrated to bend with a force of 2 g of pressure, the filament is applied to the plantar surface of the left hindpaw with sufficient force to bend slightly and left in place for 8 seconds or until the animal withdraws it's paw from the filament. In the absence of a paw withdrawal, the next highest calibrated filament is applied in a similar manner. In the presence of a paw withdrawal, the next lowest calibrated filament is applied. This up-down method continues until 4 responses are recorded after an initial positive response. The paw withdrawal threshold is calculated using Dixon non-parametric statistics.
The potency and efficacy of novel SNRT analogs in reversing mechanical hypersensitivity were determined in the L5/L6 spinal nerve ligation (SNL) model of neuropathic pain in rats. Compounds were administered intrathecal (i.t.) and the effect on paw withdrawal threshold was assessed at various time points following treatment.
In the case of `CNCC1CC1(C(=O)OC)c1ccc(-c2ccccc2)cc1` (racemic) [HD-286, Methyl 1-([1,1′-biphenyl]-4-yl)-2-((methylamino)methyl)cyclopropanecarboxylate hydrochloride], the “anti-allodynic effect (in words)” value is “significantly lower efficacy”.
